What was measured:
[1] = molecular target: T1, 5-Lipoxygenase from HWBL-1 20,000 xg Supernatant (Rattus norvegicus, UniProt P12527); assay: 5-lipoxygenase inhibition, 20,000 xg supernatant of homogenized HWBL-1 cells, radiolabeled arachidonic acid; format: biochemical; conditions: read-out: IC50 (in vitro inhibitory potency against 5-lipoxygenase)
T1 construct: 20,000 xg supernatant from 1.5 million homogenized HWBL-1 cells; endogenous in cells
T1 sequence (P12527 1-673): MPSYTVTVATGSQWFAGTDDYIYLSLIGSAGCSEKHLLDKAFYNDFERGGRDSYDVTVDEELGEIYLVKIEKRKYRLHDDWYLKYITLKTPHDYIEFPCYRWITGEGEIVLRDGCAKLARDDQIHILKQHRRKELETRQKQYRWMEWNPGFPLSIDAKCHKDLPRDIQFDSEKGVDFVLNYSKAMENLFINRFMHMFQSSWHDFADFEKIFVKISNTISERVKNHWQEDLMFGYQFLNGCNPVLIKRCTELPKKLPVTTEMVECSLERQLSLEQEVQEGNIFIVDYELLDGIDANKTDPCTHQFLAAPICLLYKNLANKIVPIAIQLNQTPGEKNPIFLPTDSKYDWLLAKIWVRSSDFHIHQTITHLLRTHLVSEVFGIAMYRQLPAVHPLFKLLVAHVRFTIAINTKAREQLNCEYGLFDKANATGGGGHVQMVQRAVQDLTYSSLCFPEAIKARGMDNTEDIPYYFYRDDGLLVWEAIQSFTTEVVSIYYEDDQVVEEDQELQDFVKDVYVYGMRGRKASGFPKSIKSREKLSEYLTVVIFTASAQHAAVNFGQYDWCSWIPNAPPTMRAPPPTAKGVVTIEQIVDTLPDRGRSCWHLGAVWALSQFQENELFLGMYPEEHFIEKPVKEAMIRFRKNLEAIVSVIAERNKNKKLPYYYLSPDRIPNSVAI
Method: Assays to determine 5-lipoxygenase inhibitory activity of representative compounds of the present invention were performed in […] incubations containing the 20,000 xg supernatant from 1.5 million homogenized HWBL-1 cells and various concentrations of the test compound. Reactions were initiated by addition of radiolabeled arachidonic acid and terminated by acidification and ether extraction. Reaction products were separated from nonconverted substrate by thin layer chromatography and measured by liquid scintillation spectroscopy. All incubations are performed in triplicate. Inhibition of 5-lipoxygenase activity was calculated as the ratio of the amount of product formed in the presence and absence of inhibitor. IC50 values (concentration of compound producing 50% enzyme inhibition) were calculated by linear regression analysis of percentage inhibition versus log inhibitor concentration plots. (Dyer, R. D.; Haviv, F.; Hanel, A. M.; Bornemier, D. A.; Carter, G. W. Fed. Proc., Fed. Am. Soc. Exp. Biol. 1984, 43, 1462A).
In Vitro Inhibitory Potencies of Compounds of this Invention
Against 5-Lipoxygenase from HWBL-1 20,000 xg Supernatant

Leukotrienes = assay: inhibition of leukotriene biosynthesis in vivo, rat peritoneal anaphylaxis model, oral; conditions: oral gavage, 1 h before antigen challenge; for inhibition in vivo at 100 µmol/kg: 100 μmol/kg, read-out: % Inhibition of Leukotrienes, Oral Dose at 100 μmol/kg; for inhibition in vivo at 30 µmol/kg: read-out: % Inhibition of Leukotrienes, Oral Dose at 30 μmol/kg
Method: Inhibition of the biosynthesis of leuktrienes in vivo after oral administration of compound was determined using a rat peritoneal anaphylaxis model in a similar manner as that described by Young and coworkers (Young, P. R.; Dyer, R. D.; Carter, G. W. Fed. Proc., Fed. Am. Soc. Exp. Biol. 1985, 44, 1185). In this model rats were injected intraperitoneally (ip) with rabbit antibody to bovine serum albumin (BSA) and three hours later injected ip with BSA to induce an antgen-antibody response. Rats were sacrificed 15 minutes after this challenge and the peritoneal fluids were collected and analyzed for leukotriene levels. Test compounds were administered by gavage one hour prior to the antigen challenge. Percent inhibition values were determined by comparing the treatment group to the mean of the control group.

Row | IC50 [1] [nM] | Compound | inhibition in vivo at 100 µmol/kg (Leukotrienes) [%] | % Inhibition of Leukotrienes, Oral Dose at 50 μmol/kg (Leukotrienes) [%] | inhibition in vivo at 30 µmol/kg (Leukotrienes; 30 μmol/kg) [%] | % Inhibition of Leukotrienes, Oral Dose at 30 μmol/kg (Leukotrienes; 30 μmol/kg) [%]
1 | 160 | NC(=O)N(O)CCNC(=O)c1cccc(Oc2ccc(Cl)cc2)c1 [Example 26, N-Hydroxy-N-[2-((3-(4-chlorophenoxy)benzoyl)amino)ethyl]urea] | 99 | – | – | –
2 | 2100 | N-Hydroxy-N-[((4-chlorobenzo[b]thien-2-oyl)amino)ethyl]urea [Example 64] | – | – | – | 92
3 | 220 | NC(=O)N(O)CCNC(=O)Cc1cccc(Oc2ccccc2)c1 [Example 56, N-Hydroxy-N-[2-((3-phenoxyphenylacetyl)amino)ethyl]urea] | 85 | – | – | –
4 | 70 | NC(=O)N(O)CCCNC(=O)c1cccc(Oc2ccccc2)c1 [Example 21] | 95 | – | – | –
5 | 130 | NC(=O)N(O)CCNC(=O)c1ccc(Oc2ccccc2)o1 [Example 36, N-Hydroxy-N-[2-((5-phenoxyfuran-2-oyl)amino)ethyl]urea] | – | – | 78 | –
6 | 240 | NC(=O)N(O)CCNC(=O)c1ccccc1Oc1ccccc1 [Example 51, N-Hydroxy-N-[2-((2-phenoxybenzoyl)amino)ethyl]urea] | – | – | 47 | –
7 | 220 | NC(=O)N(O)CCNC(=O)c1cccc(OCc2ccccc2)c1 [Example 35, N-Hydroxy-N-[2-((3-phenylmethyloxybenzoyl)amino)ethyl]urea] | 15 | – | – | –
8 | 160 | NC(=O)N(O)CCNC(=O)c1ccc(Oc2ccccc2)cc1 [Example 52, N-Hydroxy-N-[2-((4-phenoxybenzoyl)amino)ethyl]urea] | – | – | 19 | –
9 | 280 | C[C@@H](CN(O)C(N)=O)NC(=O)c1ccc(Oc2ccc(F)cc2)o1 [Example 60] | 84 | – | – | –
10 | 150 | NC(=O)N(O)CCNC(=O)c1cccc(Oc2ccc(F)cc2)c1 [Example 54, N-Hydroxy-N-[2-(3-((4-fluorophenoxy)benzoyl)amino)ethyl]urea] | – | – | 11 | –
11 | 370 | CC(Oc1ccccc1C(=O)NCCN(O)C(N)=O)c1ccccc1 (stereo not drawn) [Example 87, N-Hydroxy-N-[2-((2-(1-phenylethyloxy)benzoyl)amino)ethyl]urea] | 60 | – | – | –
12 | 5800 | CN(C(=O)CN(O)C(N)=O)c1ccc(Oc2ccccc2)cc1 [Example 4] | – | – | – | –
13 | 3500 | NC(=O)N(O)CC(=O)Nc1ccc(Oc2ccccc2)cc1 [Example 10, N-Hydroxy-N-[(((4-phenoxyphenyl)amino)carbonyl)methyl]urea] | – | – | – | –
14 | 280 | CC(CCNC(=O)c1ccc(Oc2ccc(F)cc2)o1)N(O)C(N)=O (stereo not drawn) [Example 88, N-Hydroxy-N-[4-((5-(4-fluorophenoxy)furan-2-oyl)amino)but-2-yl]urea] | – | – | 84 | –

More lines, now with the values behind:

Row | Compound | IC50 [1] [nM] | inhibition in vivo at 100 µmol/kg (Leukotrienes) [%] | % Inhibition of Leukotrienes, Oral Dose at 50 μmol/kg (Leukotrienes) [%] | inhibition in vivo at 30 µmol/kg (Leukotrienes; 30 μmol/kg) [%] | % Inhibition of Leukotrienes, Oral Dose at 30 μmol/kg (Leukotrienes; 30 μmol/kg) [%]
15 | COc1ccc(Oc2cccc(CN(C)CCN(O)C(N)=O)c2)cc1 [Example 38] | 200 | 86 | – | – | –
16 | NC(=O)N(O)CCNC(=O)c1ccc(Oc2ccc(Cl)cc2)o1 [Example 58, N-Hydroxy-N-[2-((5-(4-chlorophenoxy)furan-2-oyl)amino)ethyl]urea] | 110 | – | 81 | – | –
17 | NC(=O)N(O)CCNC(=O)c1cccc(Oc2ccc(Br)cc2)c1 [Example 53, N-Hydroxy-N-[2-(3-((4-bromophenoxy)benzoyl)amino)ethyl]urea] | 440 | – | – | 33 | –
18 | NC(=O)N(O)CCNC(=O)COc1ccccc1Oc1ccccc1 [Example 73, N-Hydroxy-N-[2-((2-phenoxyphenoxyacetyl)amino)ethyl]urea] | – | – | – | 53 | –
19 | NC(=O)N(O)CCNC(=O)c1ccc(Oc2ccc(F)cc2)o1 [Example 61] | 160 | – | 60 | – | –
20 | CN(CCN(O)C(N)=O)Cc1cccc(Oc2cc(Cl)cc(Cl)c2)c1 [Example 40, N-Hydroxy-N-[2-(N-methyl-((3-(3,5-dichlorophenoxy)phenyl)methyl)amino)ethyl]urea] | 150 | 76 | – | – | –
21 | NC(=O)N(O)CCNC(=O)c1cccc(Oc2ccccc2)c1 [Example 2] | 230 | 84 | – | – | –
22 | CNC(=O)N(O)CCCNC(=O)c1cccc(Oc2ccccc2)c1 [Example 23, N-Hydroxy-N'-methyl-N-[3-((3-phenoxybenzoyl)amino)propyl]urea] | – | – | – | 57 | –
23 | CCCCOc1cccc(C(=O)NCCN(O)C(N)=O)c1 [Example 19] | 260 | 63 | – | – | –
24 | NC(=O)N(O)CCNC(=O)c1cccc(Oc2ccccn2)c1 [Example 55, N-Hydroxy-N-[2-((3-(pyrid-2-yloxy)benzoyl)amino)ethyl]urea] | 1000 | 83 | – | – | –
25 | CN(CCN(O)C(N)=O)Cc1cccc(Oc2ccc(Cl)cc2)c1 [Example 37, N-Hydroxy-N-[2-(N-methyl-((3-(4-chlorophenoxy)phenyl)methyl)amino)ethyl]urea] | 100 | 80 | – | – | –
26 | C[C@H](CN(O)C(N)=O)NC(=O)c1cccc(Oc2ccccc2)c1 [Example 32, (R)-N-Hydroxy-N-[2-((3-phenoxybenzoyl)amino)propyl]urea] | 210 | 90 | – | – | –
27 | CC(/C=C/c1cccc(Oc2ccccc2)c1)NC(=O)CN(O)C(N)=O (stereo not drawn) [Example 12, N-Hydroxy-N-[(((trans-4-(3-phenoxyphenyl)but-3-en-2-yl)amino)carbonyl)methyl]urea] | 730 | – | – | – | –
28 | NC(=O)N(O)CCNC(=O)c1cc2ccccc2o1 [Example 63, N-Hydroxy-N-[((benzo[b]furan-2-oyl)amino)ethyl]urea] | 1000 | – | – | 52 | –

Source: US5214204A, “Arylamidoalkyl-N-hydroxyurea compounds having lipoxygenase inhibitory activity” (Abbott Laboratories, priority 1991, dated 1993)
